One series deals with tumor cells. Briefly: Viability of tumor cells at different concentrations of cyclopamine. Format: cell-based. The conditions noted are these: concentration suggested for conjugation to the collagen hydrogel scaffold. On the procedure: (§1) The smoothened inhibitor, cyclopamine, was evaluated to determine the effective drug concentration required to induce apoptosis in tumor cells. The viability of the tumors cells was measured at different concentrations of cyclopamine. Healthy cells (e.g., neurons and glia) were not affected by exposure to the drug.

For series [1], the system named is Healthy cells (e.g., neurons and glia). Briefly: Effect of cyclopamine exposure on healthy cells. The class given is cell-based. On the procedure: as §1

Turning to `CC1=C2C[C@H]3[C@@H](CC=C4C[C@@H](O)CC[C@@]43C)[C@@H]2CC[C@]12O[C@@H]1C[C@H](C)CN[C@H]1[C@H]2C` [cyclopamine], in the series on tumor cells, the “effective drug concentration required to induce apoptosis in tumor cells” value amounted to 30 µM. Besides, in series [1], the “effect of exposure to the drug on healthy cells” value is “not affected”.

The values are drawn from patent US11273250B2, “Devices, systems, and methods for excavating cancer cells” (GEORGIA TECH RESEARCH CORPORATION, priority 2010, dated 2022).
